{
  "source": "patent US20140249101A1",
  "about": "“METHODS FOR TREATING HEPATITIS C VIRUS INFECTION” (Gilead Pharmasset LLC, priority 2013, published 2014)",
  "origin": "cited, not measured here",
  "tested_on": "hepatitis C virus (HCV)",
  "conditions": "ribavirin alone",
  "note": "“Also recorded” adds a separate entry of the source.",
  "data": [
    {"compound": "NC(=O)c1ncn([C@@H]2O[C@H](CO)[C@@H](O)[C@H]2O)n1", "note": "[ribavirin, 1-β-d-ribofuranosyl-1H-1,2,4-triazole-3-carboxamide]", "values": [
      {"measurement": "sustained virologic response", "value": "did not produce any sustained virologic response; also recorded: has not been shown to produce SVR"},
      {"measurement": "effect on HCV RNA levels", "setting": "during or after therapy", "value": "did not reduce HCV RNA levels during or after therapy; also recorded: little or no effect on HCV RNA levels"},
      {"measurement": "effect on alanine aminotransferase (ALT) levels", "setting": "during the course of treatment, some patients with CHC", "value": "can normalize alanine aminotransferase (ALT) levels transiently; also recorded: normalized alanine aminotransferase (ALT) levels transiently"}
    ]}
  ]
}
